Measured values from a melting point compilation (Tetko et al.; mined from patent text by program, amines drawn as free bases though some values may be those of a salt).

melting point [°C]	Structure (SMILES)
243 to 245	CC(N)(C=CP(=O)(O)O)CCCc1ccc(Sc2cccc(OCc3ccccc3)c2)cc1Cl (centres undefined)
82 to 83	Cc1c(-c2ccccc2)on(CC(O)CCl)c1=O (centres undefined)
205 to 209	COC(=O)C1=C(C)NC(=O)N(C)C1c1cccc(N)c1 (centres undefined)
163 to 165	COc1ccccc1-c1cc(NC(=O)[C@H]2CCCNC2)ncn1
229 to 230	CC(=O)NC[C@H]1CN(c2ccc(C(=O)c3cnc4c([N+](=O)[O-])cccn34)cc2)C(=O)O1
273 to 274	CNC(=O)c1ccc(Nc2nc(O[C@H]3CCOC3)c3c(-c4ccc5nc(C)oc5c4)c[nH]c3n2)c(C)c1
113 to 115	CCCCCN1C(=O)C2(OCc3cc4c(cc32)OCO4)c2ccccc21 (centres undefined)
137 to 138	Clc1cnc2c(Cl)cccc2n1
133 to 134	O=c1c(-c2ccccc2)ccc2n1CCc1ccsc1-2
134 to 135	Cc1oc(-c2cccc(-c3nc(CCO)c(C)o3)c2)nc1CCO
147 to 149	Cc1cc(-c2c3ccccc3c(C)c3sc4ccccc4c23)cc(C)c1O
180 to 181	CCCNC(=O)c1cccc(-c2nc(=O)c3ccccc3s2)n1
118	NS(=O)(=O)NCC=Cc1ccccc1
63.5 to 65.1	O=C(CCCl)c1ccc2c(c1)CCC2
227 to 230	NC1=NS(=O)N=C1NCCCN1c2ccccc2CCc2ccccc21 (centres undefined)
> 300	CC(C)(C)OC(=O)n1nc2nc3n(c(=O)c2c1N)CCS3
93 to 94	Clc1cc(CCCn2ccnc2)ccc1OCc1coc(-c2cccs2)n1
142 to 143	CNC=Nc1cnc2ccccc2c1
79 to 81	OCCCc1cn(-c2ccc(C(F)(F)F)cn2)nc1OCc1ccccc1
145 to 146	CC1CC(=O)NN=C1c1ccc(N2CCN(CCCCN)CC2)c([N+](=O)[O-])c1 (centres undefined)
70 to 71.5	CC(C)C1C(=O)N(COC(=O)c2c(Cl)cccc2Cl)S(=O)(=O)N1C (centres undefined)
129 to 130	CCCN(CCC)C(C)C(=O)Nc1cccc2c1C(=O)c1c(NC(=O)C(C)N(CCC)CCC)cccc1C2=O (centres undefined)
271 to 273	CCc1nnc2c(NC)nc3ccccc3n12
197 to 198	COc1cc(O)cc(C)c1C=CC(=O)c1ccc(O)cc1
79	CC(=O)Oc1c(C(C)(C)C)cc(O)c(C=O)c1C(C)(C)C
108	O=[N+]([O-])c1cccc2c(OS(=O)(=O)C(F)(F)F)ccnc12

melting point [°C]	Structure (SMILES)
83 to 84	CNC(=O)C(=O)CCCCCCSc1nc2ccccc2s1
120 to 128	O=C(O)C(NS(=O)(=O)c1ccc(Cl)cc1)C1CCCCC1 (centres undefined)
229 to 230	Cc1nnsc1C(=O)c1[nH]c2ccc(Cl)cc2c1CC(=O)O
243	N=C(NO)c1nc(-c2ccc(Cl)cc2)cc(C(F)(F)F)n1
252 to 253	Cc1nnc(-c2ccc3occ(C(=O)O)c3c2)o1
220	O=c1[nH]c(C(F)(F)F)nc2ccccc12
204 to 205	CC(C)(C)OC(=O)NCCCCCC(=O)OCC1OC(n2cc(C=CBr)c(=O)[nH]c2=O)CC1O (centres undefined)
217	CC1(C)CC(O)=CC2(C1)NCC(c1cccc(O)c1)O2 (centres undefined)
151 to 153	Cc1ccc2cc(NS(C)(=O)=O)ccc2n1
106 to 108	CCCCC(C)(Cc1ccc(OCCNC(=O)c2ccc(-c3ccccn3)cc2)cc1)C(=O)O (centres undefined)
160 to 162	CCn1cc(C(=O)O)c(=O)cc1-c1ccc(N(C)C)c(C)c1
35 to 36	CCOC(=O)CCCN=c1sc2ccccc2s1
138 to 140	O=[N+]([O-])c1ccccc1NCc1cc(Cl)cc(Cl)c1
143 to 148	Brc1cc(N2CCOCC2)ccc1/C=C/c1cc(/C=C/c2ccc3cc[nH]c3c2)[nH]n1
126 to 128	CCOC(=O)C(C)(C)NC(=O)c1cccc(C2=NC(C)(C)Cc3c(CC#N)c(OC)c4c(c32)CC(C)(C)O4)c1
80 to 82	CN1C(=O)CCc2cccc(N3CCN(CCCCOc4ccc5c(n4)NC(=O)NCC5)CC3)c21
98 to 100	CCOC(=O)Cc1ccc2c(c1)C(=O)c1ccccc1CS2
192 to 194	CCOC(=O)CCn1c(=O)[nH]c2ccccc2c1=O
53 to 55	CCCNc1nc(NCCC)nc(Nc2ccc(OC)c(F)c2)n1
75 to 77	Cc1ccnc(CO)c1Br
66	CC(C)OC(=O)NS(=O)(=O)Cl
110 to 112	COCOc1cccc2c(=O)[nH]c(CCCN(C)C)cc12
80	Cn1c(=O)c2c(ncn2CCCCCCO)n(C)c1=O
147	CC(C)(C)OC(=O)[C@@H]1CS[C@H](c2cccnc2)N1C(=O)CNC(=O)Nc1cccc(C(=O)O)c1
215 to 223	Cc1cn(-c2c(F)cc3c(=O)c(C(=O)O)cn(C4CC4)c3c2F)cn1
91.5 to 93	N#Cc1cc(Cc2ccc(Cl)cc2)ccc1N

melting point [°C]	Structure (SMILES)
111 to 112	CCCCCCCCCCCc1nnc(CO)n1-c1ccccc1C(=O)c1ccccc1
60 to 62	CC(C)c1noc2c1C(=O)N(C(C)(C)C)C2=O
105	ClCCc1cc(-c2ccc(Cl)cc2)n(-c2ccc(OCc3ccc4ccccc4n3)cc2)n1
163 to 166	CN(C)c1ccc(N(c2ccccc2)C2(c3ccc(N(C)C)cc3)OC(=O)c3ccccc32)cc1 (centres undefined)
132 to 134	N#CCSC(=O)c1ccc(C#N)cc1
45 to 46	COC(=O)CN1C(=O)CC1SCc1ccc(OC)cc1 (centres undefined)
121 to 122	Clc1nc(Cl)c2sc(Cl)nc2n1
75 to 77	CC(=O)OCc1c(C)cc(C)c(NC(=O)c2sccc2S(=O)(=O)Nc2onc(C)c2C)c1C
220 to 221	O=C(O)c1cn(C2CC2)c2c(F)c(N3CCC(n4cncn4)C3)c(F)cc2c1=O (centres undefined)
151 to 152	CCC(=O)Nc1c([N+](=O)[O-])c(C(C)(C)C)nn1-c1c(Cl)cc(C(F)(F)F)cc1Cl
236	O=C(Nc1cccc(S(=O)(=O)NCCc2ccncc2)c1)c1cnn2c(C(F)(F)F)cc(-c3ccc(C(F)(F)F)cc3)nc12
109 to 110	CCOC(=O)COc1ccc(C[C@H](C)NS(=O)(=O)c2ccccc2)cc1
232 to 234	Nc1ccc(S(=O)(=O)N2CCCC(c3ccc(Cl)c(Cl)c3)=N2)cc1
31 to 33	CC(O)(CCBr)C1CCCCC1 (centres undefined)
205 to 206	Cc1cccc2ncc(C(=O)NCc3ccc(Cl)cc3)c(O)c12
78	Cc1oc(Cl)nc1-c1ccc(Cl)cc1Cl
140 to 142	Nc1ccc([N+](=O)[O-])cc1OCCO
135	COc1cc2c(cc1CCNC(=O)Cc1ccccc1)CCC2
90 to 92	COc1ccc2c(c1)CCC1=C2CCC(O)C1 (centres undefined)
180 to 183	CCOC(=O)c1c(CCCCc2nccn2C)nc2cc(OC)c(OC)cc2c1-c1ccc(OC)c(OC)c1
171 to 173	CC1=Nc2c(-c3ccncc3)c(-c3ccc(F)cc3)nn2C(C)(C)C1
194	O=C(N1CCOCC1)n1nc2c(Cl)c(Cl)c(Cl)c(Cl)c2n1
122	CCc1noc(-c2ccc(OCCC3CCN(c4ccc(C)nn4)CC3)cc2)n1
> 300	O=C(O)c1cc(-c2ccccc2)c(=O)n2c1-c1sccc1C2
135 to 136	CC(=O)c1ccc(Oc2ccc([N+](=O)[O-])cc2C#N)cc1
146 to 148	CC(C(=O)O)c1ccc(CC2CCCC2=NO)cc1 (centres undefined)

melting point [°C]	Structure (SMILES)
96 to 98	NCCn1cnc(-c2ccccc2)c1-c1ccccc1
175 to 178	CCCC(=O)Nc1cc(N(CCO)CCO)ccc1N=Nc1snc(C)c1C#N
131 to 133	CCNC(=O)ON1C(=O)CCC1=O
146 to 148	NS(=O)(=O)c1cccc2c1CSC2
92 to 94	O=C(SCC1C(=O)OCC1c1ccccc1)c1ccccc1F (centres undefined)
170 to 171	O=C(NCc1ccccc1)c1ccnc(NC(=O)c2ccc(F)cc2)c1
153 to 154	CCc1cn(S(C)(=O)=O)c2c1C(=O)CC(c1ccccc1)C2 (centres undefined)
109 to 110	CCc1cc(C(=O)c2ccccc2Cl)c(-n2c(C)nnc2CCl)s1
152	COc1ccc(C(=O)c2nnc(-c3ccccc3)o2)cc1
108	COc1ccc([C@@H]2Sc3cc(Cl)ccc3N(CCN(C)C(=O)OCc3ccccc3)C(=O)[C@@H]2O)cc1
137 to 140	CCCCCCCCCCSc1ccc2c3c(cccc13)C(=O)N(CC(=O)O)C2=O
161 to 163	CC(C)Oc1ccc2c(c1)OC(C(F)(F)F)C(C(=O)O)=C2 (centres undefined)
337 to 340	O=C(O)c1ccc2c(c1)S(=O)(=O)c1ccccc1C(=O)N2
97 to 98	CCC(=O)C(=O)Nc1c(C)c(C)c2c(c1C)C(c1ccc(C(C)C)cc1)CO2 (centres undefined)
258 to 260	O=c1[nH]ncc2[nH]c(-c3ccc(OC(F)F)c(OCC4CC4)c3)c(Cl)c12
234 to 235	CC(C)(C)OC(=O)NCc1[nH]c(=O)c2ccc(C#N)cc2c1-c1ccc(Cl)cc1
104 to 108	COCCOc1cc2ncnc(NC3=CC(=O)C4(Cc5ccccc5)OC4C3=O)c2cc1OC (centres undefined)
112 to 114	Cc1cccc(C)c1NC(=O)CS(C)=O (centres undefined)
267	Cc1ccc(C2=CCC(C)(C)c3cc(C(=O)c4ccc5cc(C(=O)O)ccc5c4)ccc32)cc1
180 to 182	N=C(NS(=O)(=O)C=Cc1ccc([N+](=O)[O-])cc1)c1ccc2ccccc2c1
72 to 110	CCOC(=O)C(C(=O)OCC)c1ccc(OCC2=NCCN2)cc1
101 to 104	COc1ccc(CSc2cccc(Cl)c2CN(C)C)cc1
> 260	O=C1CCn2c(nc3ccccc32)N1

Structure (SMILES)	melting point [°C]
COc1ccc(N(C(=O)CN2C(=O)C(Cc3cc(C)n[nH]3)C(=O)N(c3ccccc3)c3ccccc32)C(C)C)cc1 (centres undefined)	156 to 159
Cn1nnnc1S(=O)(=O)CCCCS(=O)(=O)c1nnnn1C	192 to 194
CCC1C(C)=NN=C(c2ccc(OC)c(OC)c2)c2cc(OC)c(O)cc21 (centres undefined)	210 to 212
